Consider 1 sequence from PMC7498065, “Isolation of antigen-specific, disulphide-rich knob domain peptides from bovine antibodies” (PLoS Biology, 2020).

The test deals with Complement component C5 (Homo sapiens, UniProt P01031). Put plainly: Biacore SPR single-cycle kinetics of isolated knob domain peptides binding to C5. Here is the method:
For knob domain peptides, flow cells were activated using a standard immobilisation protocol: EDC/NHS was mixed at 1:1 ratio (flow rate, 10 μL/min; contact time, 30 s). C5, at 1 μg/mL in pH 4.5 sodium-acetate buffer, was immobilized on flow cell 2 only (flow rate, 10 μL/min; contact time, 420 s). Finally, ethanolamine was applied to both flow cells (flow rate, 10 μL/min; contact time, 420 s). A final immobilization level of approximately 1,500–2,000 response units was obtained for peptide samples. For the PGT121-K149 fusion protein and K149 knob domain, the same immobilisation protocols were used but with a 750 ng/mL solution of C5, instead of 1 μg/mL.
One-micromolar stock solutions of the analytes (PGT121 knob domain fusion proteins and free knob domain peptides) were prepared in HBS-EP buffer. A series of six 3-fold dilutions of each stock solution was prepared in the same buffer. The result was 7 solutions for each analyte, at concentrations ranging from 1 μM down to 1.37 nM. A high flow rate of 40 μL/min was used, with a contact time of 230 s and a dissociation time of 1,800 s for knob domain peptides and 10,000 s for PGT121 knob domain fusion proteins. For the PGT121-K149 fusion protein and K149 knob domain, the flow rate was further increased to 100 μL/min. Binding to the reference surface was subtracted, and the data were fitted to a single-site binding model using Biacore evaluation software. Data were inspected for evidence of mass transport limitation using the flow-rate–independent component of the mass transfer constant (tc).

“Also recorded” adds a separate entry of the source. Where no end group is shown, it is not given here.

Complement component C5, sequence (P01031 19-673 limits assumed): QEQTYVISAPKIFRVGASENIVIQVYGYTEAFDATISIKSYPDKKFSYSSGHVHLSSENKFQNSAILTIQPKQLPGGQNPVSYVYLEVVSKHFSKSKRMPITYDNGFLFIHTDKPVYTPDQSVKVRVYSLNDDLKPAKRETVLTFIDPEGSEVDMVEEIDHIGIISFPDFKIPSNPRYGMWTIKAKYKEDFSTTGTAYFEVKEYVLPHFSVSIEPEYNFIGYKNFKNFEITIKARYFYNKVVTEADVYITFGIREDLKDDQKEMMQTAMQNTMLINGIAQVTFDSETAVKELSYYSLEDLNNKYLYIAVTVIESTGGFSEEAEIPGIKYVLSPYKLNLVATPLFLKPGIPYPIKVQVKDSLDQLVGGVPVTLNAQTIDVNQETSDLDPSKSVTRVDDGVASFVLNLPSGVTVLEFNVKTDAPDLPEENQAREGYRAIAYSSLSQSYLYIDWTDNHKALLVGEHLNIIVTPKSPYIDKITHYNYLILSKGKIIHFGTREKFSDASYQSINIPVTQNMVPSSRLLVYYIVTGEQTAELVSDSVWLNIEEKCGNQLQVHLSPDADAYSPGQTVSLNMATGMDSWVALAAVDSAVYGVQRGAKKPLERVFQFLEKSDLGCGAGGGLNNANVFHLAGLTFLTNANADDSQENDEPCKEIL
Complement component C5, sequence (P01031 678-1676 limits assumed): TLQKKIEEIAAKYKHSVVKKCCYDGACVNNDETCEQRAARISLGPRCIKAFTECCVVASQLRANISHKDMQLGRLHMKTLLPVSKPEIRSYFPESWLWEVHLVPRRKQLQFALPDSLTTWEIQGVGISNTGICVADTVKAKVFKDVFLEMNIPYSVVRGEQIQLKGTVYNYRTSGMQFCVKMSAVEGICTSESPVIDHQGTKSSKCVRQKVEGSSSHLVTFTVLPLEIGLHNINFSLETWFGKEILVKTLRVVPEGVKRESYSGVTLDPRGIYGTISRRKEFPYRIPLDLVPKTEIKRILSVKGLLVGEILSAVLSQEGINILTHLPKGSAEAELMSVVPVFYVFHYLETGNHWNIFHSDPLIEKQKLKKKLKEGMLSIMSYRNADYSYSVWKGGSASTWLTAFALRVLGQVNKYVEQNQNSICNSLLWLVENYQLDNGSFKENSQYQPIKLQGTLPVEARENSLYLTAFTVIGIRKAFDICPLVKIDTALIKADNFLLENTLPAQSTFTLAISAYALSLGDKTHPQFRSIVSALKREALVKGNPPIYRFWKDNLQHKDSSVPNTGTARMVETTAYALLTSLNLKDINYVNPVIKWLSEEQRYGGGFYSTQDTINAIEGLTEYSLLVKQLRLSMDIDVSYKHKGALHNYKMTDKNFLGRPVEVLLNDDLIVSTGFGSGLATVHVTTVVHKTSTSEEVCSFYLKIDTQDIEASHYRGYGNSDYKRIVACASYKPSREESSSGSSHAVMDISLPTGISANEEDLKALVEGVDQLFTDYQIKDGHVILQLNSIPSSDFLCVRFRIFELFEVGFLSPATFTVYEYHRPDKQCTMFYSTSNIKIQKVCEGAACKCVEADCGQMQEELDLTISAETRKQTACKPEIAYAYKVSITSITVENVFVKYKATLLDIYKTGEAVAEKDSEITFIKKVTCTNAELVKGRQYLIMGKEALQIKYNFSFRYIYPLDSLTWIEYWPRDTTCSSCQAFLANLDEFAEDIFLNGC

Regarding “GKSCREGYIDGGGCCLPGSCRGCACSYYDWLKCPRDCRGTSEEENLYFQ (also: bicyclic or more (positions not given here)) [K60, isolated bovine knob domain peptide, TEV-excised from PGT121 Fab]”, the “mean KD” value (SPR single-cycle kinetics, 1:1 model, mean of 3 experiments (Fig 6)) is listed as “not to bind; also recorded: Non-binding”. For the same sequence, the “Mean Stoichiometric ratio at 1 µM” value (SPR, analyte 1 µM, mean of n=3 occasions) is listed as less than 0.1. For the same sequence, the “Stoichiometric ratio at 1 µM” value is on record as less than 0.1 (occasion n=1), less than 0.1 (occasion n=2) and less than 0.1 (occasion n=3).
